Columns and labels:
Assay in all cases: DSF Tm panel
Assay type in all cases: binding
Conditions in all cases: 10 μM compound
[1] = molecular target: T1, FGFR2A (Homo sapiens, UniProt P21802)
T1 construct: purchased in-house DSF kinase panel (SGC-style construct names; the trailing letter is the construct ID)

[2] = molecular target: T2, BRAFA (Homo sapiens, UniProt P15056)
T2 construct: purchased in-house DSF kinase panel (SGC-style construct names; the trailing letter is the construct ID)

[3] = molecular target: T3, MST4A (Homo sapiens, UniProt Q9P289)
T3 construct: purchased in-house DSF kinase panel (SGC-style construct names; the trailing letter is the construct ID)

[4] = molecular target: T4, STK17BA (Homo sapiens, UniProt O94768)
T4 construct: purchased in-house DSF kinase panel (SGC-style construct names; the trailing letter is the construct ID)
T4 sequence (O94768 25-329): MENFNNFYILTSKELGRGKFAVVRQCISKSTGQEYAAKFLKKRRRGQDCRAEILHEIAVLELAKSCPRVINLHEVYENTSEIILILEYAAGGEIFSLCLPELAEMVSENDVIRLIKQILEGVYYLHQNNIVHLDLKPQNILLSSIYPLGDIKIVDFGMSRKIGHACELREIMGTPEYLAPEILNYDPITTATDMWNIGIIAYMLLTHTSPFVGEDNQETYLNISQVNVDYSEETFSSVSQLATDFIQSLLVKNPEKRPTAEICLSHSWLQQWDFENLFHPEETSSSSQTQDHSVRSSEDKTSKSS

[5] = molecular target: T5, DAPK1 (DAPK1A) (Homo sapiens, UniProt P53355)
T5 construct: purchased in-house DSF kinase panel (SGC-style construct names; the trailing letter is the construct ID)

[6] = molecular target: T6, STK39A (Homo sapiens, UniProt Q9UEW8)
T6 construct: purchased in-house DSF kinase panel (SGC-style construct names; the trailing letter is the construct ID)

[7] = molecular target: T7, MAPK15A (MAPK15HSD) (Homo sapiens, UniProt Q8TD08)
T7 sequence (Q8TD08 13-304 limits assumed): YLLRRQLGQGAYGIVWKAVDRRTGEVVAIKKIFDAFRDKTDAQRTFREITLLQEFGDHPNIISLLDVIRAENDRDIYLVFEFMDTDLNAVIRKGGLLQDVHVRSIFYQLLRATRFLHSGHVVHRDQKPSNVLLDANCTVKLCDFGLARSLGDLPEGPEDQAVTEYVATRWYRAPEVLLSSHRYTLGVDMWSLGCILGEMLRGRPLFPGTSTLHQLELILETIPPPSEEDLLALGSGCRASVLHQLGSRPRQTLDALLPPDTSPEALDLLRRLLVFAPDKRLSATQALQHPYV

[8] = molecular target: SLK (Homo sapiens, UniProt Q9H2G2); set-up: purchased in-house DSF kinase panel (SGC-style construct names; the trailing letter is the construct ID)
[9] = molecular target: T8, GSG2A (Homo sapiens, UniProt Q8TF76)
T8 construct: purchased in-house DSF kinase panel (SGC-style construct names; the trailing letter is the construct ID)
T8 sequence (Q8TF76 465-798): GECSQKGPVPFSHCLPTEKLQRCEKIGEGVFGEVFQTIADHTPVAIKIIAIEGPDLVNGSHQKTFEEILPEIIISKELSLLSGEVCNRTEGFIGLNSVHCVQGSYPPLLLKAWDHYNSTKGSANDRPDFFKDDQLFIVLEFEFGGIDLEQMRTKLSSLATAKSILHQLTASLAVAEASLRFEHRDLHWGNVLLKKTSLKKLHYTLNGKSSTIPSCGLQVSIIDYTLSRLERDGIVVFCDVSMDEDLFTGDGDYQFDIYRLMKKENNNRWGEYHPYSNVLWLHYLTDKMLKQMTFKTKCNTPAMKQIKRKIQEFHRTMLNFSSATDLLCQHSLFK

[10] = molecular target: T9, MST3A (Homo sapiens, UniProt Q9Y6E0)
T9 construct: purchased in-house DSF kinase panel (SGC-style construct names; the trailing letter is the construct ID)

[11] = molecular target: T10, DYRK1AA (Homo sapiens, UniProt Q13627)
T10 construct: purchased in-house DSF kinase panel (SGC-style construct names; the trailing letter is the construct ID)

[12] = molecular target: T11, CDK2A (Homo sapiens, UniProt P24941)
T11 construct: purchased in-house DSF kinase panel (SGC-style construct names; the trailing letter is the construct ID)

[13] = molecular target: T12, BMP2KA (Homo sapiens, UniProt Q9NSY1)
T12 construct: purchased in-house DSF kinase panel (SGC-style construct names; the trailing letter is the construct ID)

[14] = molecular target: T13, DAPK3 (DAPK3A) (Homo sapiens, UniProt O43293)
T13 construct: purchased in-house DSF kinase panel (SGC-style construct names; the trailing letter is the construct ID)

[15] = molecular target: T14, MAPK13A (Homo sapiens, UniProt O15264)
T14 construct: purchased in-house DSF kinase panel (SGC-style construct names; the trailing letter is the construct ID)
T14 sequence (O15264 1-365): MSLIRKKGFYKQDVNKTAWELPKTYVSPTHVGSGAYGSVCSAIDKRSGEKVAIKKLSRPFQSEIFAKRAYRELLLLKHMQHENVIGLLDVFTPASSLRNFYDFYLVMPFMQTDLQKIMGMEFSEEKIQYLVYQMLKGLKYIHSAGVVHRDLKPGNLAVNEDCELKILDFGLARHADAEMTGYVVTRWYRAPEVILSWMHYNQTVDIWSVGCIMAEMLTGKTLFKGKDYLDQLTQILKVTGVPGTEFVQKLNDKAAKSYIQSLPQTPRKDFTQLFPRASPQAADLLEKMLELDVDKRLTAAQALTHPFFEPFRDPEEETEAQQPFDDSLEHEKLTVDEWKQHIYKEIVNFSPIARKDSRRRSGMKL

[16] = molecular target: T15, STK4 (STK4A) (Homo sapiens, UniProt Q13043)
T15 construct: purchased in-house DSF kinase panel (SGC-style construct names; the trailing letter is the construct ID)
T15 sequence (Q13043 1-311): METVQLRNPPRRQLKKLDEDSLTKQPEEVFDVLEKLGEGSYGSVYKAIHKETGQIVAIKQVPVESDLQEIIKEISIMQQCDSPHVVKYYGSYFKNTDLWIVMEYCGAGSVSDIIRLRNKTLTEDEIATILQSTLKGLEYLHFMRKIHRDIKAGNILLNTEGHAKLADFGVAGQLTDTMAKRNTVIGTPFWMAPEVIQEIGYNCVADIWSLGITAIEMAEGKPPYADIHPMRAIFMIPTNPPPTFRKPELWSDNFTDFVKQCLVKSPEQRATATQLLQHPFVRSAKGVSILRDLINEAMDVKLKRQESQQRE

[17] = molecular target: T16, UKL3A (ULK3A) (Homo sapiens, UniProt Q6PHR2)
T16 construct: purchased in-house DSF kinase panel (SGC-style construct names; the trailing letter is the construct ID)
T16 sequence (Q6PHR2 1-279): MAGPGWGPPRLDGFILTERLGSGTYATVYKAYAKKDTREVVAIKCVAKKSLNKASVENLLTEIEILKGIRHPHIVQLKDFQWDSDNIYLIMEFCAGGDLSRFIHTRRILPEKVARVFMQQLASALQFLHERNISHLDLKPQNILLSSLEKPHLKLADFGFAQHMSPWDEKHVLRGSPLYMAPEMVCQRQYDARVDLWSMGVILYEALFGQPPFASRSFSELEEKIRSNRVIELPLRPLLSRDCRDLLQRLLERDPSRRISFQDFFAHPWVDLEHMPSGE

T9 sequence (Q9Y6E0 whole entry): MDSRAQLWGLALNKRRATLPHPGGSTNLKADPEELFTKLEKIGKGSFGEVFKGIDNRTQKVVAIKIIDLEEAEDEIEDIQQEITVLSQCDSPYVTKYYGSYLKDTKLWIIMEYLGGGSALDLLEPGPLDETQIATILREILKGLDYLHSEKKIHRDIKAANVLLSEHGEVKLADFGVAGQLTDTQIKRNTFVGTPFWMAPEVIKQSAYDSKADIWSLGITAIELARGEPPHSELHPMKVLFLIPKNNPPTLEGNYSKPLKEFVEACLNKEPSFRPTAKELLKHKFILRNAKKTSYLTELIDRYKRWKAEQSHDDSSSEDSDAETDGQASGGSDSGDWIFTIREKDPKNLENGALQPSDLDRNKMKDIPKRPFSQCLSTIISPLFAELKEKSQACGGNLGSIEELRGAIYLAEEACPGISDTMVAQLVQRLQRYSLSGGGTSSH
T2 sequence (P15056 448-723): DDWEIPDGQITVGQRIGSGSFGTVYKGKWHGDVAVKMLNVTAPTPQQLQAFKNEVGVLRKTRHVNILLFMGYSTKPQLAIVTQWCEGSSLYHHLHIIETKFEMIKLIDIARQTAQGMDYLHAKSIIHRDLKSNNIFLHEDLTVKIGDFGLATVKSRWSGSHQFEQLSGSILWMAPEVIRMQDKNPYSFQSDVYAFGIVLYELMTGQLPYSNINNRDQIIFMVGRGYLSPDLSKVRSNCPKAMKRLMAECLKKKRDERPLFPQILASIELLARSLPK
T5 sequence (P53355 1-285): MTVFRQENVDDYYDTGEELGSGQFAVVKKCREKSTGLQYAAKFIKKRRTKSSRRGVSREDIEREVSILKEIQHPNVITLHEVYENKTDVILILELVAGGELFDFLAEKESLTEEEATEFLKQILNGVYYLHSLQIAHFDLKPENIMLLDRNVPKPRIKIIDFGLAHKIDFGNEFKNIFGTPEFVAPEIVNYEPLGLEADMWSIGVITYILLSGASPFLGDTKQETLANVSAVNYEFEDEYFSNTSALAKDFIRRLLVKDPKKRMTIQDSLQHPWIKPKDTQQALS
T1 sequence (P21802 458-770): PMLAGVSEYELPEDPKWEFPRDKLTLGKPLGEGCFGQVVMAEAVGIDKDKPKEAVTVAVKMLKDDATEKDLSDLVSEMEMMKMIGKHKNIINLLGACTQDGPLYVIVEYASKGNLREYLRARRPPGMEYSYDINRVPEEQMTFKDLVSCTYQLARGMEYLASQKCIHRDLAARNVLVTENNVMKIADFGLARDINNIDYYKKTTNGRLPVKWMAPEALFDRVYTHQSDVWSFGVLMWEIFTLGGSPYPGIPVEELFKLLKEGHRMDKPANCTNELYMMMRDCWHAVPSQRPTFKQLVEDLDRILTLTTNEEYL
T3 sequence (Q9P289 1-300): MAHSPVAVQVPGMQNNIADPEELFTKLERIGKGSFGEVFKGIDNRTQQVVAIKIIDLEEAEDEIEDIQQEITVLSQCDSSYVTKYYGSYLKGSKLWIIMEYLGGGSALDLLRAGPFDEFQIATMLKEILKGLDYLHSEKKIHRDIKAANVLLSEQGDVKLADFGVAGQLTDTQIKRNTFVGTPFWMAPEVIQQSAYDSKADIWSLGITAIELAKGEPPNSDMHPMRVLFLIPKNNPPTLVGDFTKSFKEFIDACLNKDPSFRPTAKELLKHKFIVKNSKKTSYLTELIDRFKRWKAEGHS
T13 sequence (O43293 whole entry): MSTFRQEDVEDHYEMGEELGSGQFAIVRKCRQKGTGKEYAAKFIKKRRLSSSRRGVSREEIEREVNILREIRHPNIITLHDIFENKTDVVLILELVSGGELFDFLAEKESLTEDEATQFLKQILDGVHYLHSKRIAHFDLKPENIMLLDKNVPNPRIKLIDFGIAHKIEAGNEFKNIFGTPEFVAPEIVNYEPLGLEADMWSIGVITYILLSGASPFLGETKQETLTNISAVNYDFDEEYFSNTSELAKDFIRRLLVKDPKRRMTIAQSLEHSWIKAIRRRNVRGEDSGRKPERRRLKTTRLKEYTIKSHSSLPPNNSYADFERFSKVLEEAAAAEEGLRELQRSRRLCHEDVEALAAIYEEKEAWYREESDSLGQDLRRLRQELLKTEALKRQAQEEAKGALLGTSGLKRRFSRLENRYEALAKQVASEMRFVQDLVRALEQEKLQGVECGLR
T12 sequence (Q9NSY1 38-345): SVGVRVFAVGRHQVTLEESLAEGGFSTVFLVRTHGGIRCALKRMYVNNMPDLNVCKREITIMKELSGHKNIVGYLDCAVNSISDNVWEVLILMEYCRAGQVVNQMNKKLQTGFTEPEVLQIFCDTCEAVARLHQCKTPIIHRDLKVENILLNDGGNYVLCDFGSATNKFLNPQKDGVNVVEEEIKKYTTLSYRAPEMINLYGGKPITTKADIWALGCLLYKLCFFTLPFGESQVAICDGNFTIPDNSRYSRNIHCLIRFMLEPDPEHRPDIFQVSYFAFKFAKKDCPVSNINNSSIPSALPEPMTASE

| Structure (SMILES) | ΔTm at 10 µM [1] | ΔTm at 10 µM [2] | ΔTm at 10 µM [3] | ΔTm at 10 µM [4] | ΔTm at 10 µM [5] | ΔTm at 10 µM [6] | ΔTm at 10 µM [8] | ΔTm at 10 µM [9] | ΔTm at 10 µM [10] | ΔTm at 10 µM [11] | ΔTm at 10 µM [12] | ΔTm at 10 µM [13] | ΔTm at 10 µM [14] | ΔTm at 10 µM [15] | ΔTm at 10 µM [16] | ΔTm at 10 µM [17] | ΔTm at 10 µM [7] |
| --- | --- | --- | --- | --- | --- | --- | --- | --- | --- | --- | --- | --- | --- | --- | --- | --- | --- |
| O=C(NCc1ccc(Cl)cc1)Nc1ccc2cc1OCCOCCNc1ccn3ncc-2c3n1 [compound 19] | 3.7 °C | 0.8 °C | 1.1 °C | 1.2 °C | -0.1 °C | 2.6 °C | 5.2 °C | -0.2 °C | 0.7 °C | -1 °C | 5.6 °C | 9.8 °C | 0.9 °C | 0.6 °C | 5.5 °C | 4.6 °C | 1.8 °C |
| O=C(NCc1ccccc1Cl)Nc1ccc2cc1OCCOCCNc1ccn3ncc-2c3n1 [compound 17] | 1.7 °C | 0.8 °C | 0.7 °C | 4.1 °C | 0.1 °C | 2.4 °C | 4.8 °C | -0.3 °C | 0.7 °C | -1.3 °C | 2.9 °C | 9.2 °C | 0.7 °C | 0.5 °C | 4.1 °C | 3.2 °C | 6 °C |
| COc1ccccc1CNC(=O)Nc1ccc2cc1OCCOCCNc1ccn3ncc-2c3n1 [compound 29] | 2.9 °C | -0.4 °C | 0.2 °C | 1.7 °C | -0.1 °C | 0.8 °C | 2.5 °C | 0.6 °C | -7.7 °C | -0.5 °C | 1.7 °C | 8.3 °C | 0.5 °C | 0.02 °C | 2.6 °C | 4.2 °C | 3.3 °C |
| O=C(NCc1ccc(Cl)cc1F)Nc1ccc2cc1OCCOCCNc1ccn3ncc-2c3n1 [compound 21] | 2.3 °C | 0.5 °C | 1.1 °C | 2.7 °C | 0.3 °C | 2.4 °C | 5.7 °C | 0.1 °C | 0.6 °C | 0.7 °C | 5.9 °C | 7.5 °C | 1.1 °C | 0.6 °C | 4.9 °C | 4.6 °C | 1.8 °C |
| O=C(NCc1ccccc1)Nc1ccc2cc1OCCOCCNc1ccn3ncc-2c3n1 [compound 16] | 4.8 °C | 0.8 °C | 1.3 °C | 1.3 °C | 1.3 °C | 3 °C | 4.4 °C | 0.5 °C | 1.5 °C | 3.8 °C | 4.1 °C | 12.2 °C | 3.4 °C | 0.1 °C | 4.9 °C | 6.8 °C | 4.9 °C |
| Cc1ccc(F)cc1CNC(=O)Nc1ccc2cc1OCCOCCNc1ccn3ncc-2c3n1 [compound 26] | 3.5 °C | -0.6 °C | 0.8 °C | 3.1 °C | 0.2 °C | 0.9 °C | 3.2 °C | 0.6 °C | -2 °C | 0.8 °C | 2.3 °C | 9.1 °C | 1.2 °C | -0.2 °C | 3.1 °C | 3.9 °C | 2.4 °C |
| COc1ccc(CNC(=O)Nc2ccc3cc2OCCOCCNc2ccn4ncc-3c4n2)cc1 [compound 31] | 3.1 °C | -0.5 °C | 0.9 °C | 2.6 °C | 0.3 °C | 1.2 °C |  | 1.2 °C | -5.3 °C | 0.3 °C | 3.3 °C | 12 °C | 1.2 °C | -1.3 °C | 4.1 °C | 6.1 °C | 4.1 °C |

More lines, main results first:

| ΔTm at 10 µM [1] | ΔTm at 10 µM [2] | ΔTm at 10 µM [3] | ΔTm at 10 µM [4] | ΔTm at 10 µM [5] | ΔTm at 10 µM [6] | ΔTm at 10 µM [8] | ΔTm at 10 µM [9] | ΔTm at 10 µM [10] | ΔTm at 10 µM [11] | ΔTm at 10 µM [12] | ΔTm at 10 µM [13] | ΔTm at 10 µM [14] | ΔTm at 10 µM [15] | ΔTm at 10 µM [16] | ΔTm at 10 µM [17] | Structure (SMILES) | ΔTm at 10 µM [7] |
| --- | --- | --- | --- | --- | --- | --- | --- | --- | --- | --- | --- | --- | --- | --- | --- | --- | --- |
| 3.7 °C | -0.6 °C | 1.2 °C | 2.7 °C | 0.5 °C | 1.2 °C | 2.4 °C | 2.8 °C | -5.3 °C | 0.9 °C | 2.7 °C | 10.2 °C | 2.1 °C | -0.3 °C | 3.8 °C | 4.5 °C | COc1cc(CNC(=O)Nc2ccc3cc2OCCOCCNc2ccn4ncc-3c4n2)ccc1F [compound 33] | 3.3 °C |
| 2.8 °C | -0.2 °C | 1.2 °C | 3.4 °C | 0.4 °C | 1.4 °C | 3.6 °C | 1 °C | -6.4 °C | 0.6 °C | 3.4 °C | 10.9 °C | 1.2 °C | -0.3 °C | 4.4 °C | 5.9 °C | COc1ccc(CNC(=O)Nc2ccc3cc2OCCOCCNc2ccn4ncc-3c4n2)cc1F [compound 32] | 2.5 °C |
| 2.8 °C | -0.5 °C | 0.4 °C | 2.7 °C | 0.5 °C | 1 °C | 1.6 °C | 0.1 °C | -7.8 °C | -0.1 °C | 1 °C | 9.1 °C | 1.8 °C | -0.3 °C | 2.7 °C | 4.1 °C | C[C@H](NC(=O)Nc1ccc2cc1OCCOCCNc1ccn3ncc-2c3n1)c1ccccc1 [compound 34] | 2.1 °C |

Reference: PMC12621043, “Un-LOK-ing a New Approach for Conformational Selective Targeting of STK10 (LOK)” (ACS Medicinal Chemistry Letters, 2025)
